# Measurements taken from patent US20250177354A1, “THERAPEUTIC COMBINATIONS, COMPOSITIONS, AND METHODS FOR DESIGNING AND PRODUCING EN[…]” (Mindstate Design Labs, Inc., priority 2022, published 2025).
# “Also recorded” adds a separate entry of the source.
# Key:
# subjects [1] = conditions: cited from earlier work
# [2] = cited from earlier work
# subjects [3] = conditions: subjects administered MDMA; cited from earlier work
# individual = assay: Self-administration of combinations and single-compound controls, subjective reports recorded by the individual; assay type: in vivo, human
# Method: In several examples of such administration, the combinations as follows were self-administered, with the subjective reports recorded by the individual during and/or following such administration, as below.
# The following example was performed for purposes of and is presented as a control.
# In an example, the combination as set forth below was self-administered, with the report as follows.
# The working example below was performed for purposes of and is presented as a control.
# The working examples below were also performed for purposes of and are presented as controls, using an escalating dose of a single primer alone, applicable to this and other Examples.
# α2-adrenergic receptor = conditions: cited from earlier work
# I1 = conditions: cited from earlier work
# I1 Imidazoline Sites = conditions: cited from earlier work; for Selectivity Ratio: I1 relative to α2 (α2 value / I1 value)
# [4] = control: 4.0 mg 5-MeO-MiPT alone
# [5] = control: 8.0 mg 5-MeO-MiPT alone
# [6] = control: 10.0 mg 5-MeO-MiPT alone
structure (smiles),measurement,setting,value
"CNC(C)Cc1ccc2c(c1)OCO2 (racemic) [MDMA, (RS)-1-(1,3-Benzo-dioxol-5-yl)-N-methylpropan-2-amine]",subject-reported sociability,subjects [1]; following administration of MDMA,increases in sociability
same,brain imaging responses to facial expressions,subjects [1]; subjects administered MDMA,attenuated responses to angry facial expressions and enhanced responses to happy expressions
same,"effect on a stutter (case, Shulgin & Shulgin, 1991)",[2]; graduate student,dramatic improvements in a stutter
same,"efficacy in autistic social impairment (systematic review, Chaliha, 2021)",[2]; in vivo,efficacious as a pharmacological treatment
same,mental state decoding (mind reading) of social cues,subjects [3],"enhanced mental state decoding of positive stimuli, such as friendliness, and impaired the accuracy of mind reading for negative stimuli"
"COc1ccc2[nH]cc(CCN(C)C(C)C)c2c1 [Example 5-MeO-MiPT, N-isopropyl-5-methoxy-N-methyltryptamine]",physical discomfort (self-report),individual; [4],my brain was so heavy and tired
same,subjective effects (self-report),individual; [4],"My emotion is quite neutral, not much different from the normal state"
same,subjective effects (self-report),individual; control: 6.0 mg 5-MeO-MiPT alone,generally emotionally neutral
same,physical discomfort (self-report),individual; [5],"my body was uncoordinated, and I trembled a lot"
same,subjective effects (self-report),individual; [5],There was no emergence of a stable mental state; also recorded: There was not much feeling
same,physical discomfort (self-report),individual; [6],My stomach was so upset that I had to vomit
same,subjective effects (self-report),individual; [6],void of emotion and mental activities
"CC1CC(NC(C2CC2)C2CC2)=NC1C (centres unmarked) [LNP509, dicyclopropylmethyl-(4,5-dimethyl-4,5-dihydro-3H-pyrrol-2-yl)-amine]",affinity or activity for the α2-adrenergic receptor,α2-adrenergic receptor,no detectable affinity or activity
Cc1c(Cl)cccc1NC1=NCC(C)C1 (centres unmarked) [LNP599],affinity or activity for the α2-adrenergic receptor,α2-adrenergic receptor,no detectable affinity or activity
same,affinity for I1,I1,nanomolar affinity
"CC1CNC(Nc2c(Cl)cccc2Cl)=N1 (centres unmarked) [LNP630, (2,6-dichloro-phenyl)-(4-methyl-4,5-dihydro-1H-imidazol-2-yl)-amine]",affinity or activity for the α2-adrenergic receptor,α2-adrenergic receptor,no detectable affinity or activity
"CC1CCC(Nc2cc(N=[N+]=[N-])c(I)cc2Cl)=N1 (centres unmarked) [LNP906, 2-(5-azido-2-chloro-4-iodo-phenyl-amino)-5-methyl-pyrroline]",affinity or activity for the α2-adrenergic receptor,α2-adrenergic receptor,no detectable affinity or activity
"CC1CCC(Nc2ccc(I)cc2Cl)=N1 (centres unmarked) [LNP911, 2-(2-chloro-4-iodo-phenylamino)-5-methyl-pyrroline]",affinity or activity for the α2-adrenergic receptor,α2-adrenergic receptor,no detectable affinity or activity
CC(Oc1c(Cl)cccc1Cl)C1=NCCN1 (centres unmarked) [Lofexidine],Selectivity Ratio,I1 Imidazoline Sites,3.63
"COc1nc(C)nc(Cl)c1NC1=NCCN1 [Moxonidine, 4-Chloro-N-(4,5-dihydro-1H-imidazol-2-yl)-6-methoxy-2-methylpyrimidin-5-amine]",subjective effects (self-report),"individual; control: 0.2 mg Moxonidine alone, 12:30 pm","more focused, probably more centered, less distracted by thinking; also recorded: All very subtle but detectable"
"C1COC(NC(C2CC2)C2CC2)=N1 [Rilmenidine, N-(dicyclopropylmethyl)-4,5-dihydro-1,3-oxazol-2-amine]",Selectivity Ratio,I1 Imidazoline Sites,29.51
same,selectivity for I1 relative to α2 receptors,I1 Imidazoline Sites; I1 relative to α2 receptors,about 30 fold
same,subjective effects (self-report),"individual; control: 1.0 mg Rilmenidine alone, 9:00 pm","relaxing, my chest less strained; also recorded: the effect was subtle"
